Results reported in ChEMBL document CHEMBL1909046, “DrugMatrix in vitro pharmacology data”.
For Ki in this document: in other assays of this panel Not Active means under 50% inhibition at 10 µM.

Each compound was assayed against T1, Endothelin-1 receptor (Homo sapiens, UniProt P25101) (assay: not given). Conditions: cho-k1.
T1 sequence (P25101 whole entry): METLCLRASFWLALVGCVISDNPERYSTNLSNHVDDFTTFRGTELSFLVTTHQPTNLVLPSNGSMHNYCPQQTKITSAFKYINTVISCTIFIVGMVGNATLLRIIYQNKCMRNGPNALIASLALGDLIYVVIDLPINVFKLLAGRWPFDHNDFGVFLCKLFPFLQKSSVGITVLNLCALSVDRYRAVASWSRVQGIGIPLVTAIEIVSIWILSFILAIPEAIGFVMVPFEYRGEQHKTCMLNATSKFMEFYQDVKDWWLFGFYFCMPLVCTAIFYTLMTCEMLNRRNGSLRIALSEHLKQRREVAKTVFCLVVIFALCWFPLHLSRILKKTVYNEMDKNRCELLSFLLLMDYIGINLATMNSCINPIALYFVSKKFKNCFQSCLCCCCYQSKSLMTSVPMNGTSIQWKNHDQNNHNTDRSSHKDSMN
Type: cell membranes, Membrane
For C[S+]([O-])c1ccc(-c2nc(-c3ccncc3)c(-c3ccc(F)cc3)[nH]2)cc1 (centres undefined) [SB-203580], the IC50 was “Not Active”.
With CC1CCC(NC(=O)N(CCCl)N=O)CC1 (centres undefined) [SEMUSTINE] the IC50 was “Not Active”.
For O=C1C[C@@H]2OCC=C3CN4CC[C@]56c7ccccc7N1[C@H]5[C@H]2[C@H]3C[C@H]46 [STRYCHNINE], the IC50 was “Not Active”.
For C[N+](C)(C)CCOC(=O)CCC(=O)OCC[N+](C)(C)C.[Cl-].[Cl-] [SUCCINYLCHOLINE CHLORIDE], the IC50 was “Not Active”.
For Nc1ccc(S(=O)(=O)NC(=O)c2ccccc2)cc1 [SULFABENZAMIDE], the IC50 was “Not Active”.
With CN1CCN(CCCN2c3ccccc3Sc3ccc(C(F)(F)F)cc32)CC1 [TRIFLUOPERAZINE] the IC50 was “Not Active”.

Each compound was assayed against Glycine receptor (Rattus norvegicus, UniProt P22771+P24524+P07727+P20781) (assay: not given). Conditions: not given.
Type: cell membranes, Wistar, Spinal cord, Membrane
With C[S+]([O-])c1ccc(-c2nc(-c3ccncc3)c(-c3ccc(F)cc3)[nH]2)cc1 (centres undefined) [SB-203580] the IC50 was “Not Active”.
In the case of CC1CCC(NC(=O)N(CCCl)N=O)CC1 (centres undefined) [SEMUSTINE], the IC50 is reported as “Not Active”.
In the case of C[N+](C)(C)CCOC(=O)CCC(=O)OCC[N+](C)(C)C.[Cl-].[Cl-] [SUCCINYLCHOLINE CHLORIDE], the IC50 is reported as “Not Active”.
Nc1ccc(S(=O)(=O)NC(=O)c2ccccc2)cc1 [SULFABENZAMIDE] was tested, and the IC50 was “Not Active”.
In the case of CN1CCN(CCCN2c3ccccc3Sc3ccc(C(F)(F)F)cc32)CC1 [TRIFLUOPERAZINE], the IC50 is reported as “Not Active”.

These compounds were tested against T2, 3-hydroxy-3-methylglutaryl-coenzyme A reductase (Homo sapiens, UniProt P04035) (assay: not given). Conditions: not given.
T2 sequence (P04035 whole entry): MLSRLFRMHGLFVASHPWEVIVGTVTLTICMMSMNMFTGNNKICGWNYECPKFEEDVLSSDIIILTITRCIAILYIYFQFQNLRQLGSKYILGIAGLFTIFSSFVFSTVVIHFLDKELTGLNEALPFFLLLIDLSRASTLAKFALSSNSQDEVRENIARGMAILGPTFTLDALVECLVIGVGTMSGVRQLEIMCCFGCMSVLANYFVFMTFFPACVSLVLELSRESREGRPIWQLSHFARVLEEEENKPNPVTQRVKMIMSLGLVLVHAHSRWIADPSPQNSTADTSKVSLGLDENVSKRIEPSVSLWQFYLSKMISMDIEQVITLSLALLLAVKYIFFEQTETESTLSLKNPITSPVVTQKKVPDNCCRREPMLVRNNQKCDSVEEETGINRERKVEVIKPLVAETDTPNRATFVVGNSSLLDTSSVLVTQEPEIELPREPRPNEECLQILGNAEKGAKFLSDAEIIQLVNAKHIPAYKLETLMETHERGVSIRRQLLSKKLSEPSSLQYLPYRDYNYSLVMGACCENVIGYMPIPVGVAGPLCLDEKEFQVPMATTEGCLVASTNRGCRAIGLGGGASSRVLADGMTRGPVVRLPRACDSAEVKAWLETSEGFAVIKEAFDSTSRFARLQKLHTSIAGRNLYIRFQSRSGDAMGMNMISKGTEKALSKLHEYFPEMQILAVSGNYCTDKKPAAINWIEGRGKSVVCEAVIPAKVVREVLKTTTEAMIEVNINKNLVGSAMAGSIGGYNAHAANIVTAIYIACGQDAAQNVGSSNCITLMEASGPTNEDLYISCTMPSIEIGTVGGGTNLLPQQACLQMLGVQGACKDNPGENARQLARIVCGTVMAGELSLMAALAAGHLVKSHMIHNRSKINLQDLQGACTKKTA
Set-up: species or system Escherichia coli
With C[S+]([O-])c1ccc(-c2nc(-c3ccncc3)c(-c3ccc(F)cc3)[nH]2)cc1 (centres undefined) [SB-203580] the IC50 was “Not Active”.
For CC1CCC(NC(=O)N(CCCl)N=O)CC1 (centres undefined) [SEMUSTINE], the IC50 was “Not Active”.
In the case of O=C1C[C@@H]2OCC=C3CN4CC[C@]56c7ccccc7N1[C@H]5[C@H]2[C@H]3C[C@H]46 [STRYCHNINE], the IC50 is reported as “Not Active”.
In the case of C[N+](C)(C)CCOC(=O)CCC(=O)OCC[N+](C)(C)C.[Cl-].[Cl-] [SUCCINYLCHOLINE CHLORIDE], the IC50 is reported as “Not Active”.
For Nc1ccc(S(=O)(=O)NC(=O)c2ccccc2)cc1 [SULFABENZAMIDE], the IC50 was “Not Active”.
For CN1CCN(CCCN2c3ccccc3Sc3ccc(C(F)(F)F)cc32)CC1 [TRIFLUOPERAZINE], the IC50 was “Not Active”.

Each compound was assayed against T3, Polyunsaturated fatty acid lipoxygenase ALOX15 (Oryctolagus cuniculus, UniProt P12530) (assay: biochemical). Conditions: reticulocytes.
T3 sequence (P12530 whole entry): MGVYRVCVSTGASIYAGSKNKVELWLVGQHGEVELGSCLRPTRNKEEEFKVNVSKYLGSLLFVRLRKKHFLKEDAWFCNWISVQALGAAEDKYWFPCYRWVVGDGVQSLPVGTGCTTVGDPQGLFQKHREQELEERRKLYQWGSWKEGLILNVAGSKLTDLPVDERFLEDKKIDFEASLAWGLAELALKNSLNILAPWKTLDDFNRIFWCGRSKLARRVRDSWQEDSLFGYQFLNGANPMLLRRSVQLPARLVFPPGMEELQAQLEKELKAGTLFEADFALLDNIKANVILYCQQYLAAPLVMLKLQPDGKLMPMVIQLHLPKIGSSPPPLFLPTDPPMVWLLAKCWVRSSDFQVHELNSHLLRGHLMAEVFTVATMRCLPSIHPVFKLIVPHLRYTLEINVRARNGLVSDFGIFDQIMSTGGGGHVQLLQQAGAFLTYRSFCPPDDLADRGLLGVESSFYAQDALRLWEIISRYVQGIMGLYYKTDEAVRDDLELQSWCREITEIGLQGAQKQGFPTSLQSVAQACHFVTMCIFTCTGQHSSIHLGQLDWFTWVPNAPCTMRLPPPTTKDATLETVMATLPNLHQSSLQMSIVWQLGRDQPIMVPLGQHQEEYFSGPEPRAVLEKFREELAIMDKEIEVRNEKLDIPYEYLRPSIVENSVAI
Type: tissue-based, Reticulocytes
In the case of C[S+]([O-])c1ccc(-c2nc(-c3ccncc3)c(-c3ccc(F)cc3)[nH]2)cc1 (centres undefined) [SB-203580], the IC50 is reported as “Not Active”.
With CC1CCC(NC(=O)N(CCCl)N=O)CC1 (centres undefined) [SEMUSTINE] the IC50 was “Not Active”.
In the case of O=C1C[C@@H]2OCC=C3CN4CC[C@]56c7ccccc7N1[C@H]5[C@H]2[C@H]3C[C@H]46 [STRYCHNINE], the IC50 is reported as “Not Active”.
In the case of C[N+](C)(C)CCOC(=O)CCC(=O)OCC[N+](C)(C)C.[Cl-].[Cl-] [SUCCINYLCHOLINE CHLORIDE], the IC50 is reported as “Not Active”.
In the case of Nc1ccc(S(=O)(=O)NC(=O)c2ccccc2)cc1 [SULFABENZAMIDE], the IC50 is reported as “Not Active”.
CN1CCN(CCCN2c3ccccc3Sc3ccc(C(F)(F)F)cc32)CC1 [TRIFLUOPERAZINE] was tested, and the IC50 was “Not Active”.

What follows are compounds tested against T4, Muscarinic acetylcholine receptor M4 (Homo sapiens, UniProt P08173) (assay: not given). Conditions: cho-k1.
T4 sequence (P08173 whole entry): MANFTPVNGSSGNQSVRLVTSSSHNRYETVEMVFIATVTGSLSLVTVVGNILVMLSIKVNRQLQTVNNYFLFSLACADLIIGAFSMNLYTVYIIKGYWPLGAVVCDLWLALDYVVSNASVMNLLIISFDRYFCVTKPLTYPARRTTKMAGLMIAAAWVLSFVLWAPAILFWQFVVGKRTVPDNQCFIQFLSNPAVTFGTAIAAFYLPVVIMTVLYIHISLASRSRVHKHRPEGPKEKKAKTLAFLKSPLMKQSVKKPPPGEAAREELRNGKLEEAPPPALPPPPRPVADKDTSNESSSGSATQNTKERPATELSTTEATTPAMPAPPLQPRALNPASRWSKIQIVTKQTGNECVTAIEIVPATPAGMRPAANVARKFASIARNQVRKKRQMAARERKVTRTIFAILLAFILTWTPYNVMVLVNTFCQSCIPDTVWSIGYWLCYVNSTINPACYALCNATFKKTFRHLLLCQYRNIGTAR
Type: cell membranes, CHO-K1, Membrane
With C[S+]([O-])c1ccc(-c2nc(-c3ccncc3)c(-c3ccc(F)cc3)[nH]2)cc1 (centres undefined) [SB-203580] the IC50 was “Not Active”.
For CC1CCC(NC(=O)N(CCCl)N=O)CC1 (centres undefined) [SEMUSTINE], the IC50 was “Not Active”.
In the case of O=C1C[C@@H]2OCC=C3CN4CC[C@]56c7ccccc7N1[C@H]5[C@H]2[C@H]3C[C@H]46 [STRYCHNINE], the IC50 is reported as “Not Active”.
C[N+](C)(C)CCOC(=O)CCC(=O)OCC[N+](C)(C)C.[Cl-].[Cl-] [SUCCINYLCHOLINE CHLORIDE] was tested, and the IC50 was “Not Active”.
For Nc1ccc(S(=O)(=O)NC(=O)c2ccccc2)cc1 [SULFABENZAMIDE], the IC50 was “Not Active”.
In the case of CN1CCN(CCCN2c3ccccc3Sc3ccc(C(F)(F)F)cc32)CC1 [TRIFLUOPERAZINE], the IC50 is reported as “Not Active”.

Each compound was assayed against Epidermal growth factor receptor (Homo sapiens, UniProt P00533) (assay: DRUGMATRIX: Protein Tyrosine Kinase, EGF Receptor enzyme inhibition (substrate: Poly(Glu:Tyr))). Conditions: insect cells; Not Active = under 50% inhibition at 10 µM.
Epidermal growth factor receptor, sequence (P00533 whole entry): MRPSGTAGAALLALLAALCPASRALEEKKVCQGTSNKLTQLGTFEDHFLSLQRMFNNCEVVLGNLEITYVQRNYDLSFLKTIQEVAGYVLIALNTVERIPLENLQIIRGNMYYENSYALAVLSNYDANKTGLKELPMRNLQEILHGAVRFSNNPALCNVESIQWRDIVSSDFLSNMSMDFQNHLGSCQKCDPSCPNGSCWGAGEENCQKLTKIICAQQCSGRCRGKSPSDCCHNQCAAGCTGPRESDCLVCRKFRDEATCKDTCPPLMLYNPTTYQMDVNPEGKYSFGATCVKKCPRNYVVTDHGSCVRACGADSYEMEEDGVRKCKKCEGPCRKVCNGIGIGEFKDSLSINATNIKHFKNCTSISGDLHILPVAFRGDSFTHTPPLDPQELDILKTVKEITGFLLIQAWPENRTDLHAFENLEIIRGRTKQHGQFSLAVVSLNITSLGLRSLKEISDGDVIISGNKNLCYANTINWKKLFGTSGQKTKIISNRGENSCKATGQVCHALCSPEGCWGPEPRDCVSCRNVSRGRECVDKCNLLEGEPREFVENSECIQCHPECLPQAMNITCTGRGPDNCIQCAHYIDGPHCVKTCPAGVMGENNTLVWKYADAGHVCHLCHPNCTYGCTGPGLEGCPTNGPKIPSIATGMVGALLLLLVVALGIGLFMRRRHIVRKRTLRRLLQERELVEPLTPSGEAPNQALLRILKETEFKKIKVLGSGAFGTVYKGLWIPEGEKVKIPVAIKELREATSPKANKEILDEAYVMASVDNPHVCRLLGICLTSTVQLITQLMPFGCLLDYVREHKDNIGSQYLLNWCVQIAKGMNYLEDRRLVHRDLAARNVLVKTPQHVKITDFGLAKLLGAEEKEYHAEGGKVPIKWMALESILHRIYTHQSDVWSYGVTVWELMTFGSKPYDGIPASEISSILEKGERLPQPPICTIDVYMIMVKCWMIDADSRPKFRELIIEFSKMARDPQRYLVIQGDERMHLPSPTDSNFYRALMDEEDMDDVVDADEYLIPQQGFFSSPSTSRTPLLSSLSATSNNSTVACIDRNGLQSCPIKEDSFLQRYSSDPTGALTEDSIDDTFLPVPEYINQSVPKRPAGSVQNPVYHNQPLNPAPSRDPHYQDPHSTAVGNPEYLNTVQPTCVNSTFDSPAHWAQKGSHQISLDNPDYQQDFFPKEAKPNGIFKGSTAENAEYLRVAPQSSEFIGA
Type: cell-based, Insect cells
With CC1CCC(NC(=O)N(CCCl)N=O)CC1 (centres undefined) [SEMUSTINE] the IC50 was “Not Active”.
For O=C1C[C@@H]2OCC=C3CN4CC[C@]56c7ccccc7N1[C@H]5[C@H]2[C@H]3C[C@H]46 [STRYCHNINE], the IC50 was “Not Active”.
In the case of C[N+](C)(C)CCOC(=O)CCC(=O)OCC[N+](C)(C)C.[Cl-].[Cl-] [SUCCINYLCHOLINE CHLORIDE], the IC50 is reported as “Not Active”.
For Nc1ccc(S(=O)(=O)NC(=O)c2ccccc2)cc1 [SULFABENZAMIDE], the IC50 was “Not Active”.
For CN1CCN(CCCN2c3ccccc3Sc3ccc(C(F)(F)F)cc32)CC1 [TRIFLUOPERAZINE], the IC50 was “Not Active”.

What follows are compounds tested against Cytochrome P450 3A4 (Homo sapiens, UniProt P08684) (assay: not given). Conditions: bti-tn-5b1-4.
Cytochrome P450 3A4, sequence (P08684 whole entry): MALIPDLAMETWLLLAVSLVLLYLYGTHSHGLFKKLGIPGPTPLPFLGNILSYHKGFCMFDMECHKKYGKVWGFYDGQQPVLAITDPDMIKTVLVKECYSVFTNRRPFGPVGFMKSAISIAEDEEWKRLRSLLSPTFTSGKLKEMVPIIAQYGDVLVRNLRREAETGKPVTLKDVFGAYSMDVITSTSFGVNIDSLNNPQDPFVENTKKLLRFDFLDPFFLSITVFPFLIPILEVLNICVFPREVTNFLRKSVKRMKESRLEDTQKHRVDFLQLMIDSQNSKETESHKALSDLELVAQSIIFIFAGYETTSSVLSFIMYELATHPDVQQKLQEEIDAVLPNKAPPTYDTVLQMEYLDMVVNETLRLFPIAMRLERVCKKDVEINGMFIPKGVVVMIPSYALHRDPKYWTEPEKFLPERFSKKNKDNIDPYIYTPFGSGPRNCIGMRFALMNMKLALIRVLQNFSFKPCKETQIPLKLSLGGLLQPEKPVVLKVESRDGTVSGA
For C[S+]([O-])c1ccc(-c2nc(-c3ccncc3)c(-c3ccc(F)cc3)[nH]2)cc1 (centres undefined) [SB-203580], the IC50 was “Not Active” and the Ki was “Not Active”.
For CC1CCC(NC(=O)N(CCCl)N=O)CC1 (centres undefined) [SEMUSTINE], the IC50 was “Not Active” and the Ki was “Not Active”.
For O=C1C[C@@H]2OCC=C3CN4CC[C@]56c7ccccc7N1[C@H]5[C@H]2[C@H]3C[C@H]46 [STRYCHNINE], the IC50 was “Not Active” and the Ki was “Not Active”.
With C[N+](C)(C)CCOC(=O)CCC(=O)OCC[N+](C)(C)C.[Cl-].[Cl-] [SUCCINYLCHOLINE CHLORIDE] the IC50 was “Not Active” and the Ki was “Not Active”.
With Nc1ccc(S(=O)(=O)NC(=O)c2ccccc2)cc1 [SULFABENZAMIDE] the IC50 was “Not Active” and the Ki was “Not Active”.
